Test system: rat model of pulmonary hypertension induced by exposure to hypoxia
Experiment: Butyrate-containing water in rat model of pulmonary hypertension induced by exposure to hypoxia
Type: in vivo, SD rats
Settings: 100 mM butyrate in water ad libitum for three weeks, oral, compared to vehicle administration group
Protocol: Rats were anesthetized by inhalation of isoflurane (Pfizer) for induction of sedation and analgesia. Throughout the procedure, the body temperature of the rats was maintained at 37 to 38° C. using a rectal thermistor coupled with a thermostatically controlled heating pad. The trachea was cannulated, and the lungs were ventilated with a mouse ventilator (Harvard Apparatus) at a tidal volume of 10 μL/g at a frequency of 70/min. A polyethylene tube was inserted into the right external jugular vein and advanced into the right ventricle to measure right ventricular pressure (RVP). RVP signals were detected by a pressure transducer (MLT0670; ADInstruments), and the signals were relayed to pressure amplifiers (ML117; ADInstruments), and then were sampled continuously with a PowerLab system (ADInstruments, Colorado Springs, Colo.) and recorded on a computer using Chart software (ADInstruments). Heart rate was derived from the right ventricular systolic peaks.
After right ventricular systolic pressure measurement, the rats were killed by anesthesia overdose, and the heart was excised. […] The tissues were blotted, and the weight of the right ventricle (RV) and the weight of the left ventricle (LV)+septum were measured. The ratio of RV to LV+septum weight (the ratio of RV to LV weight) was calculated and used as an index of right ventricular hypertrophy. […]

CCCC(=O)[O-].[Na+] [butyrate, sodium butyrate]
right ventricular systolic pressure (FIG. 33(A)): significant inhibition | right ventricular hypertrophy (ratio of RV to LV weight) (FIG. 33(B)): significant inhibition

— patent US20230172996A1, “COMPOSITION FOR ALLEVIATING PULMONARY HYPERTENSION, METHOD FOR PREDICTING PROGNOSIS OF PULMONARY HYPERTENSION, METHOD FOR ASSISTING IN DETERMINING SEVERITY OF PULMONARY HYPERTENSION, AND METHOD FOR ASSISTING IN DIAGNOSING PULMONARY HYPERTENSION” (JSR Corporation, priority 2020, published 2023)
